Measurements as given in patent US20060122181A1, “Heteroaromatic pentacyclic compound and medicinal use thereof” (Japan Tobacco Inc., priority 2003, published 2006).

Structure (SMILES)	melting point
CC(C)CN(Cc1ccc(-c2csc(CN(CC(=O)O)C(=O)c3ccccc3)n2)cc1)c1ccc(C(C)(C)C)cc1 [Example 1-28]	147 °C
CCCC(CCC)c1ccc(N(Cc2ccc(-c3csc(COc4cc(C(=O)O)ccc4NC(=O)CNC)n3)cc2)C(C)C)cc1 [Example 1-126]	210 to 212 °C
CCCC(CCC)c1ccc(CNC(=O)c2ccc(-c3csc(CN(CC(=O)O)Cc4ccccc4)n3)cc2)cc1 [Example 1-55]	141 to 143 °C
O=C(O)c1cccc(C2CCN(Cc3nc(-c4ccc(OCc5ccc(Cl)c(Cl)c5)cc4)cs3)CC2)c1 [Example 1-173]	197 to 199 °C
CCCC(CCC)N(Cc1ccc(-c2csc(COc3ccc(C(=O)O)cn3)n2)cc1)c1ccc(C(C)C)cc1 [Example 1-6]	141 to 143 °C
CCC(CC)c1ccc(N(Cc2ccc(-c3csc(COc4cc(C(=O)O)ccc4N)n3)cc2)C(C)C)cc1 [Example 1-90]	179 to 181 °C
CCCCOc1ccc(COc2ccc(-c3csc(CN4CCC(c5cccc(C(=O)O)c5)CC4)n3)cc2)cc1 [Example 1-175]	222 to 225 °C
CC(C)CN(Cc1ccc(-c2csc(CN(CC(=O)O)C(=O)c3ccccn3)n2)cc1)c1ccc(C(C)(C)C)cc1 [Example 1-29]	160 °C
CCCC(CCC)c1ccc(OCc2ccc(-c3csc(CN(CC(=O)O)C(=O)COc4ccccc4)n3)cc2)cc1 [Example 1-129]	143 to 145 °C
CCCC(CCC)c1ccc(OCc2ccc(-c3csc(CNC(=O)c4ccc(C(=O)O)cn4)n3)cc2)cc1 [Example 1-163]	164 to 166 °C
CCCC(CCC)c1ccc(N(Cc2ccc3nc(-c4csc(CN(CC(=O)O)Cc5nc6ccccc6[nH]5)n4)oc3c2)C(C)C)cc1 [Example 1-139]	127 to 133 °C
CC(C)CN(Cc1ccc(-c2csc(CN(CC(=O)O)C(=O)N3CCOCC3)n2)cc1)c1ccc(C(C)(C)C)cc1 [Example 1-59]	138 °C
CCC(CC)N(Cc1ccc(-c2csc(CN3Cc4ccccc4C[C@H]3C(=O)O)n2)cc1)c1ccc(C(C)C)cc1 [Example 1-35]	110 to 113 °C
CCCC(CCC)c1ccc(OCc2ccc(-c3csc(CN(CC(=O)O)CC(=O)Nc4ccccc4)n3)cc2)cc1 [Example 1-95]	149.5 °C
CCC(CC)c1ccc(N(Cc2ccc(-c3csc(COc4cccc(C(=O)O)c4)n3)cc2)C(C)C)cc1 [Example 1-91]	165 to 167 °C
CCCC(CCC)c1ccc(OCc2ccc(-c3csc(Cn4nc(C)cc4C(=O)O)n3)cc2)cc1 [Example 1-176]	141 to 143 °C
CCCC(CCC)c1ccc(N(Cc2ccc(-c3csc(COc4cc(C(=O)O)ccc4NC(C)=O)n3)cc2)C(C)C)cc1 [Example 1-108]	129 to 131 °C
CCCC(CCC)c1ccc(OCc2ccc(-c3csc(CN(C)c4ccc(OCC(=O)O)c(C(=O)O)c4)n3)cc2)cc1 [Example 1-125]	122 °C
CCCC(CCC)c1ccc(N(Cc2ccc3nc(-c4csc(COc5cncc(C(=O)O)c5)n4)oc3c2)C(C)C)cc1 [Example 1-140]	135 to 138 °C
CCCC(CCC)c1ccc(OCc2ccc(-c3csc(CN(C)[C@@H](Cc4ccccc4)C(=O)O)n3)cc2)cc1 [Example 1-42]	114 to 118 °C
CCC(CC)c1ccc(N(Cc2ccc(-c3csc(COc4cc(OC)cc(C(=O)O)c4)n3)cc2)C(C)C)cc1 [Example 1-63]	131 °C
CCCC(CCC)c1ccc2c(c1)nc(-c1csc(COc3ccc(C(=O)O)cc3)n1)n2Cc1cccc(C)n1 [Example 1-159]	113 to 116 °C
CCCC(CCC)N(Cc1ccc(-c2csc(COc3cncc(C(=O)O)c3)n2)cc1)c1ccc(C(C)C)cc1 [Example 1-7]	184 to 185 °C
CCCC(CCC)c1ccc(OCc2ccc(-c3csc(COc4ncccc4C(=O)O)n3)cc2)cc1 [Example 1-76]	154.5 °C
CCCC(CCC)c1ccc(OCc2ccc(-c3csc(COc4cncc(C(=O)O)c4)c3)cc2)cc1.Cl	170 to 173 °C
CC(C)CN(Cc1ccc(-c2csc(CN(CC(=O)O)C(=O)c3cccnc3)n2)cc1)c1ccc(C(C)(C)C)cc1 [Example 1-30]	193 °C
CCCC(CCC)c1ccc(Cn2c(-c3csc(CN4CCC(c5ccc(C(=O)O)cc5)CC4)n3)nc3ccccc32)cc1 [Example 1-171]	208.5 to 209.8 °C
CCCC(CCC)c1ccc(N(C)Cc2ccc(-c3csc(COc4ccc(C(=O)O)cc4)n3)cc2)cc1 [Example 1-5]	161 to 163 °C
CCCC(CCC)c1ccc(OCc2ccc(-c3csc(CN(CC(=O)O)CC(=O)Nc4cccnc4)n3)cc2)cc1 [Example 1-96]	162.5 °C
CCCC(CCC)c1ccc(OCc2ccc(-c3csc(COc4cccnc4C(=O)O)n3)cc2)cc1 [Example 1-82]	138.5 °C (dec.)

Further lines, results first:

melting point	Structure (SMILES)
147 to 150 °C	CCCC(CCC)c1ccc(OCc2ccc(-c3ccc(C(=O)N(CC(=O)O)Cc4ccccn4)s3)cc2)cc1 [Example 4-46]
173 to 175 °C	CCCC(CCC)c1ccc(OCc2ccc(-c3ccc(CN(CC(=O)O)Cc4nc5ccccc5[nH]4)s3)cc2)cc1 [Example 4-8]
117 to 118 °C	CC(C)CC(=O)N(CC(=O)O)Cc1nc(-c2ccc(N(C)Cc3ccc(CC(C)C)cc3)cc2)cs1 [Example 3-59]
78 to 83 °C	CN(Cc1ccccc1)c1ccc(-c2csc(CN(CC(=O)O)Cc3cccc4ccccc34)n2)cc1 [Example 3-54]
175 to 177 °C	CCCC(CCC)c1ccc(CN(C)c2ccc(-c3csc(COc4ccc(C(=O)O)cc4)n3)cc2)cc1 [Example 3-95]
170.5 to 171.9 °C	CCCC(CCC)c1ccc(OCc2ccc(-c3csc(CN(CC(=O)O)Cc4cn(C)c5ccccc45)c3)cc2)cc1 [Example 4-86]
82 to 87 °C	CC(C)c1ccc(CN(c2ccc(-c3csc(CN(CC(=O)O)Cc4ccc(C(C)(C)C)cc4)n3)cc2)C(C)C)cc1 [Example 3-46]
159 to 160 °C	CN(Cc1ccc(CC(C)(C)C)cc1)c1ccc(-c2csc(CN(CC(=O)O)Cc3ccccc3)n2)cc1 [Example 3-27]
184 to 190 °C	CN(Cc1ccc(C2CCC(C)(C)CC2)cc1)c1ccc(-c2csc(CN(C)S(=O)(=O)CC(=O)O)n2)cc1 [Example 3-99]
130 to 132 °C	CCCC(CCC)c1ccc(COc2ccc(C)cc2-c2csc(CN(C)S(=O)(=O)c3ccc(C(=O)O)cc3)n2)cc1 [Example 3-6]
183 to 186 °C	CN(Cc1ccc(C2CCCCC2)cc1)c1ccc(-c2csc(CNC(C(=O)O)c3ccccc3)n2)cc1 (stereo not shown) [Example 3-77]
178 to 181 °C	CCCC(CCC)c1ccc(CN(C)c2ccc(-c3csc(COc4cncc(C(=O)O)c4)n3)cc2)cc1 [Example 3-94]
226 to 228 °C	CN(Cc1ccc(C2CCCCC2)cc1)c1ccc(-c2csc(CN(C)c3ccc(C(=O)O)cn3)n2)cc1 [Example 3-84]
155 °C	CCCC(CCC)c1ccc(OCc2ccc(-c3csc(CN(CC(=O)O)CC(=O)Nc4ccccc4)c3)cc2)cc1 [Example 4-16]
82 to 84 °C	CCCC(CCC)c1ccc(OCc2ccc(-c3ccc(CN(CC(=O)OCC)Cc4nc5ccccc5n4C)s3)cc2)cc1 [Example 4-83]
184 to 187 °C	CCCC(CCC)c1ccc(COc2ccc(C)cc2-c2csc(CN(C)c3ccc(C(=O)O)cc3)n2)cc1 [Example 3-7]
153 to 154 °C	CC(C)CCN(CC(=O)O)Cc1nc(-c2ccc(N(C)Cc3ccc(C4CCCCC4)cc3)cc2)cs1 [Example 3-91]

melting point	Structure (SMILES)
153 to 157 °C	CC(C)Cc1ccc(CN(C)c2ccc(-c3csc(CN(CC(=O)O)Cc4ccc(Cl)cc4)n3)cc2)cc1 [Example 3-47]
178 to 183 °C	CN(Cc1ccc(C2CCCCC2)cc1)c1ccc(-c2csc(CN(C)S(=O)(=O)CC(=O)O)n2)cc1 [Example 3-102]
78 to 82 °C	CCCC(CCC)c1ccc(N(Cc2ccc(-c3ccc(CN(CC(=O)O)Cc4nc(C(C)(C)C)cs4)s3)cc2)C(C)C)cc1 [Example 4-20]
144 to 147 °C	CN(Cc1ccccc1)c1ccc(-c2csc(CN(CC(=O)O)Cc3ccc4ccccc4n3)n2)cc1 [Example 3-55]
204 to 207 °C	CCCC(CCC)c1ccc(COc2ccc(-c3csc(COc4ccc(C(=O)O)cc4)n3)cc2)cc1 [Example 3-2]
106 to 107 °C	CCOC(=O)c1ccc(OCc2nc(-c3nc4cc(C(CC)CC)ccc4n3Cc3ccc(C(C)C)cc3)cs2)cc1 [Example 3-128]
139 to 142 °C	CCC(CC)c1ccc2c(c1)nc(-c1csc(COc3ccc(C(=O)O)cc3)n1)n2Cc1ccc(C(C)C)cc1 [Example 3-129]
93 to 98 °C	CCCC(CCC)c1ccc(N(Cc2ccc(-c3ccc(COc4cncc(C(=O)O)c4)s3)cc2)C(C)C)cc1 [Example 4-18]
126 to 127 °C	CCCC(CCC)c1ccc(CN(C)c2ccc(-c3csc(CSc4ccc(C(=O)O)cc4)n3)cc2)cc1 [Example 3-96]
117 to 118 °C	CCCC(CCC)c1ccc(COc2ccc(-c3csc(CSc4ccc(C(=O)O)cc4)n3)cc2)cc1 [Example 3-3]
156 to 158 °C	CCCC(CCC)c1ccc(COc2ccc(-c3csc(COc4cncc(C(=O)O)c4)n3)cc2OC)cc1 [Example 3-115]
133 to 134 °C	CN(CCc1ccc(CC(C)(C)C)cc1)c1ccc(-c2csc(CN(CC(=O)O)Cc3ccccc3)n2)cc1 [Example 3-31]
137 to 140 °C	CCCC(CCC)c1ccc(CN(CC(=O)O)Cc2nc(-c3ccc(N(C)Cc4ccccc4)cc3)cs2)cc1 [Example 3-48]
175 to 177 °C	CN(Cc1ccc(CC(C)(C)C)cc1)c1ccc(-c2csc(CN3Cc4ccccc4CC3C(=O)O)n2)cc1 (stereo not shown) [Example 3-74]
122 to 124 °C	CCCC(CCC)c1ccc(OCc2ccc(-c3ccc(CN(CC(=O)O)CC(=O)Nc4ccccc4)s3)cc2)cc1 [Example 4-10]
135 to 138 °C	CC(NCc1nc(-c2ccc(N(C)Cc3ccc(C4CCCCC4)cc3)cc2)cs1)C(=O)O (stereo not shown) [Example 3-78]
254 to 255 °C	CCCC(CCC)c1ccc(COc2ccc(-c3csc(CN4Cc5ccccc5C[C@H]4C(=O)[O-])n3)cc2)cc1.[Na+] [Example 3-112]
